Columns and labels:
ETB = target: T1, ETB (Sus scrofa, UniProt P35463); test: ETB Antagonistic Activity: radioligand binding assay, effect on specific binding of [^125 I]ET-1 in porcine kidney membrane; conditions: inner medulla of porcine kidney membrane; [^125 I]ET-1 16 pM
T1 construct: Membranes as endothelin receptors were isolated from inner medulla of porcine kidney; from tissue; host or cells: inner medulla of porcine kidney, crude membranes
T1 sequence (P35463 27-443): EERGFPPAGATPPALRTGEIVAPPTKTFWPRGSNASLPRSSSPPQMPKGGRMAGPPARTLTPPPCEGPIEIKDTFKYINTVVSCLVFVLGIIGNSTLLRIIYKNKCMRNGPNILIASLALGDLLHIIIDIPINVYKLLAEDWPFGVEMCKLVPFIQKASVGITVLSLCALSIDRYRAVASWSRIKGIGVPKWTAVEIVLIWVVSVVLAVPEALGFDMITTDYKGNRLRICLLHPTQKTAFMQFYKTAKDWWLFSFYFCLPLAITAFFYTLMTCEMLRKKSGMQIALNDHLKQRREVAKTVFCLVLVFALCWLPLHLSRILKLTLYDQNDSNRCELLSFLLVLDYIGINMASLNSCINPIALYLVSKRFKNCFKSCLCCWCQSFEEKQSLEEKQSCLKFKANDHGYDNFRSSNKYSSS
Method: (ETB Antagonistic Activity)
(§1) Radioligand binding assay:
(§2) (a) Crude receptor membrane preparation:
Membranes as endothelin receptors were isolated from inner medulla of porcine kidney. The inner medulla of porcine kidney was placed in ice-cold buffer (0.25M sucrose, 5 mM Tris-HCl, 0.1 mM EDTA, pH 7.5). The inner medulla was homogenized in five volumes (w/v) of ice-cold buffer using a Brinkman Polytron PT-10 at a setting of 16,000 rpm for three 10-sec periods. The homogenate was centrifuged at 10,000× g for 20 minutes at 4° C. The pellet was discarded and the supernatant was centrifuged at 100,000× g for 60 minutes at 4° C. […]
To determine [^125 I]ET-1 binding to kidney, membrane suspensions prepared from kidney (10 μg of protein) were incubated by constant shaking for 60 minutes at 23° C. with [^125 I]ET-1 (range, 4-900 pM) in a total volume of 250 μl of buffer 1 that contained 0.1 mg/ml of bovine serum albumin. […] The filter disks were washed three times with 0.1 ml of ice-cold 50 mM Tris-HCl buffer (pH 7.5), and the radioactivity was counted in a gamma counter (Hewlett-Packard) with an efficiency of 71%. […] The Kd was determined by Scatchard analysis. […]

ETA = target: T2, ETA (Sus scrofa, UniProt Q29010); test: ETA Antagonistic Activity: radioligand binding assay, effect on specific binding of ^125 I-endothelin-1 in porcine aorta membrane; conditions: ^125 I-Endothelin-1 1.67×10^-11 M, room temperature, 60 minutes
T2 construct: The aorta membrane fractions were stored at -80° C. until use; tissue Pel-Freez Biologicals (U.S.A.); host or cells: porcine aorta, crude membrane fraction
T2 sequence (Q29010 21-427): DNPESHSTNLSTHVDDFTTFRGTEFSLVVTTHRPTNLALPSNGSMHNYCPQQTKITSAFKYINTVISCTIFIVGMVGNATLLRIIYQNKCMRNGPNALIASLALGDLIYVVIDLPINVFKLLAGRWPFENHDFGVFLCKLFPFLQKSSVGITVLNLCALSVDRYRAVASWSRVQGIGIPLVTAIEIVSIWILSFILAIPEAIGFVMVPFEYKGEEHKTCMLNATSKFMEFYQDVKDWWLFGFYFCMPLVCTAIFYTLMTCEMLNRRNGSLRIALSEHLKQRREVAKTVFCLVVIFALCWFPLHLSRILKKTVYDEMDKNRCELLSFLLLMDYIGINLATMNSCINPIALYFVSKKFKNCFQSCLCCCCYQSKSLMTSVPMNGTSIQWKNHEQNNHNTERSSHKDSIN
Method: (ETA Antagonistic Activity)
as §1, §2
Porcine aorta was purchased from Pel-Freez Biologicals (U.S.A.) and stored at -80° C. until use.
Porcine aorta (50 g) was thawed and dissected free from fatty tissue, minced with scissors and then homogenized with a polytron (Brinkmann PT-20, maximal speed for 3×10 sec) in 100 ml buffer (0.25M sucrose, 10 mM Tris-HCl, 0.1 mM EDTA).
The homogenate was centrifuged at 10,000 g for 20 minutes at 4° C.
The supernatant, containing the plasma membrane fraction, was centrifuged at 100,000 g for 60 minutes at 4° C., and then resultant pellets were referred to as crude membrane fractions.
The pellets were resuspended in 25 ml of binding assay buffer (50 mM Tris-HCl, 100 mM NaCl, 5 mM MgCl2, 1.5 μg/ml phenylmethylsulfonyl fluoride (PMSF), 120 μg/ml bacitracin, 12 μg/ml leupepcin, 6 μg/ml chymostain, 0.1% bovine serum albumin (BSA), pH 7.5).
The aorta membrane fractions were stored at -80° C. until use.
(b) ^125 I-endothelin-1 binding assay: […]
After incubation, the incubation mixture were filtered through Glass-fiber GF/C filter (pretreated with 0.1% polyethylene imine for 3 hours prior to use) using cell harvester (Brandel M-24S). […] The filters were counted in a gamma counter (Packard Auto Gamma Model 5650).

Row | IC50 (ETB) | IC50 (ETA) | Compound
1 | < 0.01 µM | 0.04 µM | CCC[C@@H](O)[C@H](C(=O)N[C@@H](Cc1c[nH]c2ccccc12)C(=O)O)c1ccc2c(c1)OCO2 (mixture of isomers) [Compound B, N-[(2RS,3RS)-2-(3,4-Methylenedioxyphenyl)-3-hydroxyhexanoyl]-L-tryptophan]
2 | – | 0.53 µM | CCC[C@@H](O)[C@H](C(=O)O)c1ccc2c(c1)OCO2 (racemic) [Compound C, (2RS,3RS)-2-(3,4-Methylenedioxyphenyl)-3-hydroxyhexanoic acid]
3 | 0.075 µM | – | O=C(O)[C@H](Cc1c[nH]c2ccccc12)NC(=O)[C@H](c1ccccc1O)[C@H](O)C1CCCCC1 [Compound A, N-[(2R,3R)-3-Cyclohexyl-2-(2-hydroxyphenyl)-3-hydroxypropionyl]-L-tryptophan]
